The source of these data is US20240417387A1, “SULFONYLPIPERAZINYL COMPOUNDS FOR TREATMENT OF BACTERIAL INFECTIONS” (Hoffmann-La Roche Inc., priority 2021, published 2024).

Converted amounts (≈) assume the structure as drawn.

By IC50 is commonly meant the concentration needed to halve the response being measured. One may read the MIC as the smallest concentration in the dilution series that meets the test's criterion for growth inhibition.

In data set [1] the target is Escherichia coli UDP-2,3-diacylglucosamine hydrolase (LpxH) (Escherichia coli (strain K12), UniProt P43341). Nature of the data set: Enzymatic IC50 assay of Escherichia coli LpxH (UMP/CMP-Glo luminescence). As to conditions: Enzymatic IC50 against Escherichia coli LpxH; read-out: IC50 (converted). The data set is classed as biochemical. The procedure, abridged: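 LpxH (2 nM) preincubated 10 min at room temperature with compound (100 μM to 1.7 nM) in Tris-HCl pH7.5 buffer with 2.5 mM MnCl2, then reacted with 5 μM UDP-DAG for 20 min. Reaction heat-stopped at 95° C.; released UMP converted to ATP and read by luciferase luminescence (UMP/CMP-Glo).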
Sequence of Escherichia coli UDP-2,3-diacylglucosamine hydrolase (LpxH) (P43341 whole entry): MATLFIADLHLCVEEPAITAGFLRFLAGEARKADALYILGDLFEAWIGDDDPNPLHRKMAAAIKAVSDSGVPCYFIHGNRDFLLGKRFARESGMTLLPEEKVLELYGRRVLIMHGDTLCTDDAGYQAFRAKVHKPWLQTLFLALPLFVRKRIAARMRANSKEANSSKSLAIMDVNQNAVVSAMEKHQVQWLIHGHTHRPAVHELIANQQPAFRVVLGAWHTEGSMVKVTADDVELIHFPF

The subject of data set [2] is Escherichia coli ATCC 25922. Nature of the data set: Minimal Inhibitory Concentration (MIC) broth dilution assay, E. coli ATCC 25922. The data set is classed as cell-based. As to conditions: Escherichia coli, ATCC25922, 20 h, read-out: MIC E. coli ATCC 25922. The procedure, abridged: (§1)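 Broth microdilution with twofold compound series in cation-adjusted Mueller Hinton broth, inoculum 5×10^5 CFU/mL, applied to each strain. Plates incubated 20 h at 35 °C in ambient air. MIC […] recorded as the lowest concentration with no visible growth, read by eye.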
For orientation: Broth dilution looks for growth in wells or tubes with falling amounts of substance.

Data set [3] can be described thus: Human microsome stability assay. The format is in vitro ADME. The settings on record: human liver microsomes 0.5 mg/mL, 37° C., pH 7.4, NADPH regenerating system. A digest of the protocol: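 Compound […] with 0.5 mg/mL human liver microsomal protein in 100 mM potassium phosphate pH 7.4, 10 min preincubation at 37 °C, started with NADPH regenerating system. Sampled 0–30 min, remaining compound by LC-MS/MS; clearance binned low <7, medium 7–16.2, high >16.2 mL/min/kg.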
(Microsomes from liver hold many membrane-bound enzymes, among them those of drug oxidation.)

For data set [4], the system named is Klebsiella pneumonia ATCC 43816. Nature of the data set: Minimal Inhibitory Concentration (MIC) broth dilution assay, K. pneumonia ATCC 43816. As to conditions: Klebsiella pneumoniae, ATCC43816, 20 hours at 35° C., CAMHB, read-out: MIC K. p ATCC 43816. The data set is classed as cell-based. The procedure, abridged:
as §1

Data set [5] concerns Escherichia coli BW 25113. Nature of the data set: Minimal Inhibitory Concentration (MIC) broth dilution assay, E. coli BW 25113. The format is cell-based. The settings on record: Escherichia coli, BW25113, 20 hours at 35° C., CAMHB, read-out: MIC E. coli K-12 BW 25113. The procedure, abridged:
as §1

For the compound `NCCNC(=O)c1cnc(C(F)(F)c2cc(Cl)nc(N3CCN(S(=O)(=O)c4ccc(N5C[C@H](N)CC5=O)cc4)CC3)c2)cn1` [Example 024, N-(2-aminoethyl)-5-[[2-chloro-6-[4-[4-[(4R)-4-amino-2-oxo-pyrrolidin-1-yl]phenyl]sulfonylpiperazin-1-yl]-4-pyridyl]-difluoro-methyl]pyrazine-2-carboxamide], the 50% inhibitory concentration (IC50) in data set [1] was 4.61 nM. Further, the minimal inhibitory concentration (MIC) in data set [2], in data set [4] and in data set [5] was 0.69 µg/mL (≈ 1.06 µM) throughout. Moreover, the “Clearance of Human microsome” value in data set [3] came out at 11.22 mL/min/kg.
As for `NCCCNC(=O)c1ccc(C(F)(F)c2cc(Cl)nc(N3CCN(S(=O)(=O)c4ccc(N5C[C@H](N)CC5=O)cc4)CC3)c2)nc1` [Example 026, N-(3-aminopropyl)-6-[[2-chloro-6-[4-[4-[(4R)-4-amino-2-oxo-pyrrolidin-1-yl]phenyl]sulfonylpiperazin-1-yl]-4-pyridyl]-difluoro-methyl]pyridine-3-carboxamide], the concentration for half-maximal inhibition (IC50) in data set [1] was 10.6 nM. Moreover, the MIC in data set [2], in data set [4] and in data set [5] was 0.78 µg/mL (≈ 1.18 µM) in each case. Moreover, in data set [3], the “Clearance of Human microsome” value was 6.15 mL/min/kg.
In the case of `CN(C)CCCNC(=O)c1ccc(C(F)(F)c2cc(Cl)nc(N3CCN(S(=O)(=O)c4ccc(N5C[C@H](N)CC5=O)cc4)CC3)c2)nc1` [Example 027, 6-[[2-chloro-6-[4-[4-[(4R)-4-amino-2-oxo-pyrrolidin-1-yl]phenyl]sulfonylpiperazin-1-yl]-4-pyridyl]-difluoro-methyl]-N-[3-(dimethylamino)propyl]pyridine-3-carboxamide], the concentration for half-maximal inhibition (IC50) in data set [1] was 5.79 nM. Further, the MIC is 3.2 µg/mL (≈ 4.63 µM) in data set [2], 3.2 µg/mL (≈ 4.63 µM) in data set [4] and 1.6 µg/mL (≈ 2.31 µM) in data set [5]. Further, the “Clearance of Human microsome” value in data set [3] came out at 6.15 mL/min/kg.
Consider `CNCCCNC(=O)c1ccc(C(F)(F)c2cc(Cl)nc(N3CCN(S(=O)(=O)c4ccc(N5C[C@H](N)CC5=O)cc4)CC3)c2)cn1` [Example 029, 5-[[2-chloro-6-[4-[4-[(4R)-4-amino-2-oxo-pyrrolidin-1-yl]phenyl]sulfonylpiperazin-1-yl]-4-pyridyl]-difluoro-methyl]-N-[3-(methylamino)propyl]pyridine-2-carboxamide], for which, in data set [1], the IC50 is 2.95 nM. Further, the MIC in data set [2] was 1.4 µg/mL (≈ 2.07 µM); in data set [4], 1.4 µg/mL (≈ 2.07 µM); in data set [5], 2.8 µg/mL (≈ 4.13 µM). Besides, in data set [3], the “Clearance of Human microsome” value is listed as 7.22 mL/min/kg.
As for `CN(CCN)C(=O)[C@H]1CC[C@H](C(F)(F)c2cc(Cl)nc(N3CCN(S(=O)(=O)c4ccc(N5C[C@H](N)CC5=O)cc4)CC3)c2)CC1` [Example 030, Trans-N-(2-aminoethyl)-4-[[2-chloro-6-[4-[4-[(4R)-4-amino-2-oxo-pyrrolidin-1-yl]phenyl]sulfonylpiperazin-1-yl]-4-pyridyl]-difluoro-methyl]-N-methyl-cyclohexanecarboxamide], the IC50 in data set [1] is 8.98 nM. Besides, the MIC is 1.1 µg/mL (≈ 1.65 µM) in data set [2], 1.7 µg/mL (≈ 2.54 µM) in data set [4] and 1.7 µg/mL (≈ 2.54 µM) in data set [5]. Besides, in data set [3], the “Clearance of Human microsome” value came out at 6.90 mL/min/kg.
On to `NCCCNC(=O)[C@H]1CC[C@@H](C(F)(F)c2cc(Cl)nc(N3CCN(S(=O)(=O)c4ccc(N5C[C@H](N)CC5=O)cc4)CC3)c2)CC1` [Example 031], for which the half-inhibitory concentration (IC50) in data set [1] was 7.48 nM. Moreover, the MIC turned out to be 2.2 µg/mL (≈ 3.29 µM) in data set [2], 2.2 µg/mL (≈ 3.29 µM) in data set [4] and 1.7 µg/mL (≈ 2.54 µM) in data set [5]. For the same compound, the “Clearance of Human microsome” value in data set [3] amounted to 6.15 mL/min/kg.
For the compound `NCCCNC(=O)C12CCC(C(F)(F)c3cc(Cl)nc(N4CCN(S(=O)(=O)c5ccc(N6C[C@H](N)CC6=O)cc5)CC4)c3)(CC1)CC2` [Example 033, N-(3-aminopropyl)-4-[[2-chloro-6-[4-[4-[(4R)-4-amino-2-oxo-pyrrolidin-1-yl]phenyl]sulfonylpiperazin-1-yl]-4-pyridyl]-difluoro-methyl]bicyclo[2.2.2]octane-1-carboxamide], the IC50 in data set [1] was 5.76 nM. Besides, the MIC stood at 0.57 µg/mL (≈ 0.821 µM) in data set [2], 0.43 µg/mL (≈ 0.619 µM) in data set [4] and 1.1 µg/mL (≈ 1.58 µM) in data set [5]. Moreover, in data set [3], the “Clearance of Human microsome” value is 10.77 mL/min/kg.
The corresponding values for `NCCCNC(=O)C12CCC(C(F)(F)c3cc(Cl)nc(N4CCN(S(=O)(=O)c5ccc(N6C[C@H](N)CC6=O)cc5)CC4)c3)(CC1)C2` [Example 034, N-(3-aminopropyl)-4-[[2-chloro-6-[4-[4-[(4R)-4-amino-2-oxo-pyrrolidin-1-yl]phenyl]sulfonylpiperazin-1-yl]-4-pyridyl]-difluoro-methyl]norbornane-1-carboxamide] are 29.4 nM, 1.1 µg/mL (≈ 1.62 µM), 1.1 µg/mL (≈ 1.62 µM), 1.7 µg/mL (≈ 2.5 µM) and 6.15 mL/min/kg.
The corresponding values for `NCC(O)CNC(=O)[C@H]1CC[C@H](C(F)(F)c2cc(Cl)nc(N3CCN(S(=O)(=O)c4ccc(N5C[C@H](N)CC5=O)cc4)CC3)c2)CC1` (stereo partly drawn) [Example 036, Trans-N-(3-amino-2-hydroxy-propyl)-4-[[2-chloro-6-[4-[4-[(4R)-4-amino-2-oxo-pyrrolidin-1-yl]phenyl]sulfonylpiperazin-1-yl]-4-pyridyl]-difluoro-methyl]cyclohexanecarboxamide] are 5.85 nM, 1.1 µg/mL (≈ 1.61 µM), 1.1 µg/mL (≈ 1.61 µM), 1.1 µg/mL (≈ 1.61 µM) and 6.15 mL/min/kg.
The corresponding values for `C[N+](C)(C)CCCNC(=O)c1ccc(C(F)(F)c2cc(Cl)nc(N3CCN(S(=O)(=O)c4ccc(N5C[C@H](N)CC5=O)cc4)CC3)c2)cc1` [Example 037] are under 2.84 nM, 1.5 µg/mL, 1.5 µg/mL, 0.73 µg/mL and 6.66 mL/min/kg.
For `C[N+]1(CCCNC(=O)c2ccc(C(F)(F)c3cc(Cl)nc(N4CCN(S(=O)(=O)c5ccc(N6C[C@H](N)CC6=O)cc5)CC4)c3)cc2)CCCC1` [Example 038, 4-[[2-Chloro-6-[4-[4-[(4R)-4-amino-2-oxo-pyrrolidin-1-yl]phenyl]sulfonylpiperazin-1-yl]-4-pyridyl]-difluoro-methyl]-N-[3-(1-methylpyrrolidin-1-ium-1-yl)propyl]benzamide], the IC50 in data set [1] was 4.1 nM. For the same compound, the MIC in data set [2], in data set [4] and in data set [5] was 1.5 µg/mL in each case. Also, the “Clearance of Human microsome” value in data set [3] came out at 6.80 mL/min/kg.
For the compound `N[C@@H]1CC(=O)N(c2ccc(S(=O)(=O)N3CCN(c4cc(C(F)(F)c5ccc(C(=O)NCCCNCCO)nc5)cc(Cl)n4)CC3)cc2)C1` [Example 039, 5-[[2-Chloro-6-[4-[4-[(4R)-4-amino-2-oxo-pyrrolidin-1-yl]phenyl]sulfonylpiperazin-1-yl]-4-pyridyl]-difluoro-methyl]-N-[3-(2-hydroxyethylamino)propyl]pyridine-2-carboxamide], the IC50 in data set [1] is 4.24 nM. Further, the MIC in data set [2] amounted to 1.6 µg/mL (≈ 2.26 µM); in data set [4], 1.6 µg/mL (≈ 2.26 µM); in data set [5] it was 0.82 µg/mL (≈ 1.16 µM). Further, in data set [3], the “Clearance of Human microsome” value was 6.15 mL/min/kg.
For `NCCOCCNC(=O)[C@H]1CC[C@H](C(F)(F)c2cc(Cl)nc(N3CCN(S(=O)(=O)c4ccc(N5C[C@H](N)CC5=O)cc4)CC3)c2)CC1` [Example 042, Trans-N-[2-(2-aminoethoxy)ethyl]-4-[[2-chloro-6-[4-[4-[(4R)-4-amino-2-oxo-pyrrolidin-1-yl]phenyl]sulfonylpiperazin-1-yl]-4-pyridyl]-difluoro-methyl]cyclohexanecarboxamide], the half-maximal inhibitory concentration (IC50) in data set [1] was 11.5 nM. In addition, the MIC in data set [2], in data set [4] and in data set [5] was 2.3 µg/mL (≈ 3.29 µM) each time. Besides, the “Clearance of Human microsome” value in data set [3] was 11.12 mL/min/kg.
For `NCCN(CCN)C(=O)[C@H]1CC[C@H](C(F)(F)c2cc(Cl)nc(N3CCN(S(=O)(=O)c4ccc(N5C[C@H](N)CC5=O)cc4)CC3)c2)CC1` [Example 043], the IC50 in data set [1] is 35.9 nM. In addition, the results for the minimal inhibitory concentration (MIC) in data set [2], in data set [4] and in data set [5] were 0.57 µg/mL (≈ 0.817 µM), 1.1 µg/mL (≈ 1.58 µM) and 1.1 µg/mL (≈ 1.58 µM), respectively. Besides, the “Clearance of Human microsome” value in data set [3] is reported as 9.94 mL/min/kg.
Take `NCCCN(CCCN)C(=O)[C@H]1CC[C@H](C(F)(F)c2cc(Cl)nc(N3CCN(S(=O)(=O)c4ccc(N5C[C@H](N)CC5=O)cc4)CC3)c2)CC1` [Example 044, Trans-N,N-bis(3-aminopropyl)-4-[[2-chloro-6-[4-[4-[(4R)-4-amino-2-oxo-pyrrolidin-1-yl]phenyl]sulfonylpiperazin-1-yl]-4-pyridyl]-difluoro-methyl]cyclohexanecarboxamide]: in data set [1], the IC50 is 48.3 nM. Besides, the minimal inhibitory concentration (MIC) in data set [2] was 0.62 µg/mL (≈ 0.855 µM); in data set [4] it was 1.2 µg/mL (≈ 1.65 µM); in data set [5], 1.2 µg/mL (≈ 1.65 µM). Moreover, the “Clearance of Human microsome” value in data set [3] was 7.30 mL/min/kg.
